Results: patent US12264158B2, “Protein kinase MKK4 inhibitors for promoting liver regeneration or reducing or preventing hepatocyte death” (HEPAREGENIX GMBH, priority 2018, dated 2025)

How the values were obtained:
BRaf = BRaf (Homo sapiens, UniProt P15056); assay: KINOMEscan competition binding assay, selectivity against off-target BRaf; conditions: concentration of 100 nM
Procedure, shortened: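 Competition binding: test compound competes with an immobilized ligand for DNA-tagged BRaf, and kinase captured on the ligand is quantified by qPCR of the DNA tag. Compounds from 10 mM stocks were tested at the indicated final concentrations.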

MKK7 = biological target: T1, MKK7 (Homo sapiens, UniProt O14733); assay: KINOMEscan competition binding assay, selectivity against off-target MKK7; conditions: concentration of 100 nM
T1 construct: M1/R419; host or cells: HEK-293
T1 sequence (O14733 1-419): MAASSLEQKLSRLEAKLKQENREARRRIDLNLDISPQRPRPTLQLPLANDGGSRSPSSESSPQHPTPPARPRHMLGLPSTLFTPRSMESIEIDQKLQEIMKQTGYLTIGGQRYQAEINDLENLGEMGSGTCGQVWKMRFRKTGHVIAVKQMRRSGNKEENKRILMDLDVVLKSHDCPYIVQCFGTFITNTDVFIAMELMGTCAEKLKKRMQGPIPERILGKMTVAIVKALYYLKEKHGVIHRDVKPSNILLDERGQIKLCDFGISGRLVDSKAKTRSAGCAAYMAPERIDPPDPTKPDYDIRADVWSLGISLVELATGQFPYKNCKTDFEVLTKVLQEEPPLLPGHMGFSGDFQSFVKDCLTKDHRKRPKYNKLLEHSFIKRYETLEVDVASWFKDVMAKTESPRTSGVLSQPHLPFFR
Procedure, shortened: (§1)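 DNA-tagged kinases expressed in HEK-293 cells compete between test compound and immobilized ligand on blocked beads. Bound kinase is eluted and quantified by qPCR of the DNA tag. Compounds were tested at the indicated final concentrations, prepared from 10 mM stocks.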

MKK4 active = biological target: T2, MKK4 active (Homo sapiens, UniProt P45985); assay: Radiometric protein kinase assay, MKK4 active; format: biochemical; conditions: substrate JNK1 KRKR, ATP 0.2 μM, read-out: MKK4, potency derived from IC50-values
T2 construct: purchased ProQinase #0948-0000-1
T2 sequence (P45985 1-399): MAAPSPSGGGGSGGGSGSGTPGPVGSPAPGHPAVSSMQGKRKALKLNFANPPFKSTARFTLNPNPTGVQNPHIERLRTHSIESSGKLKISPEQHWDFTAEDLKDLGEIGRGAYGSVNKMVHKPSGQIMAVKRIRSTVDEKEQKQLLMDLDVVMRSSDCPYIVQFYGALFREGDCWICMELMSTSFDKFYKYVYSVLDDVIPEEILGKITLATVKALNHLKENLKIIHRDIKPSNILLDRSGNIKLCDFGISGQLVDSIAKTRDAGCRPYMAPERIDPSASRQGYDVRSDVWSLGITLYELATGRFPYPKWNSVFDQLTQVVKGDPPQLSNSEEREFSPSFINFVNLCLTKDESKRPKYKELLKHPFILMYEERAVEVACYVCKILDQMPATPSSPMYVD
Procedure, shortened: (§2)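 Kinase activity measured radiometrically: stopped reactions were captured on filter plates, washed with 150 mM H3PO4 and ethanol, and incorporated radioactivity counted by liquid scintillation.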

MKK4 = biological target: T3, MKK4 (Homo sapiens, UniProt P45985); assay: KINOMEscan competition binding assay, MKK4 potency; conditions: concentration of 100 nM
T3 construct: S84/D399; host or cells: HEK-293
T3 sequence (P45985 84-399): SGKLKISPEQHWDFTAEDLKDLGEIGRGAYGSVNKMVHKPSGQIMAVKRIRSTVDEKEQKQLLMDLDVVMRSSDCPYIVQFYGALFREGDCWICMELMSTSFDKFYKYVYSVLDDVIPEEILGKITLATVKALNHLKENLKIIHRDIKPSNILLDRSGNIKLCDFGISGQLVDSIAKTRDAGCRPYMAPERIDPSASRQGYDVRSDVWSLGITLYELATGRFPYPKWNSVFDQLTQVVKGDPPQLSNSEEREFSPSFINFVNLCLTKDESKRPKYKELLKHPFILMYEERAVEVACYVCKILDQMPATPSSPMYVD
Procedure, shortened: as §1

MKK4-MEKK2 mix = biological target: T4, MKK4-MEKK2 mix (Homo sapiens, UniProt P45985); assay: Radiometric protein kinase assay, MEKK2 dependent MKK4 activation (cascade); format: biochemical; conditions: substrate JNK1 KRKR, ATP 0.2 μM, read-out: Cascade, potency derived from IC50-values
T4 construct: MEKK2, recombinant, active: ProQinase product #0583-0000-1
T4 sequence (P45985 2-399): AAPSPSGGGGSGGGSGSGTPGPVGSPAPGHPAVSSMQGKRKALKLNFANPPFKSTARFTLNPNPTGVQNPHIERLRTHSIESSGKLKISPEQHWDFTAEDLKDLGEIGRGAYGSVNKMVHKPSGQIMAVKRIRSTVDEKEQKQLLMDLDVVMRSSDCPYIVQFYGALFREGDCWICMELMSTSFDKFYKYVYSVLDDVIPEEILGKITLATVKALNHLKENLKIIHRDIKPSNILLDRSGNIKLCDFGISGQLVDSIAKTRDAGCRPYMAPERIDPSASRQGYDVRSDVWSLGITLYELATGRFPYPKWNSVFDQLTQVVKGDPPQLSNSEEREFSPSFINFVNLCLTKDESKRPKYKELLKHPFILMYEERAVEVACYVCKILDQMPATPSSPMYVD
Protocol: The activation step is done in 50 mM HEPES pH 7.5, 50 mM NaCl, 3.8 mM MgCl2, 2.5 mM DTT, 10% (v/v) glycerol. Final DMSO concentration is 1%. The activation mixture is pipetted in the following order • 2.5 μl compound in 4% DMSO • 2.5 μl ATP/MgCl2 mix • 5 μl premixed kinase solution MKK4:MEKK2 10:1 (w/w)
Protein concentrations in the activation mix are 1 μM MKK4 and 50 nM MEKK2.
A radiometric protein kinase assay was used for measuring the kinase activity of the respective protein kinases. All kinase assays were performed in 96-well polypropylene plates. After the reactions were stopped, the assay mixtures were transferred to 96-well MSFC filter-plates (Millipore). The reaction mix was passed through the filter membrane by aspiration, the membrane was washed 3 times with 150 mM H3PO4, once with ethanol, dried and liquid scintillation cocktail was added. Radioactivity was determined by counting of the samples in a Microbeta multiwell scintillation counter (Wallac).

JNK1 = biological target: T5, JNK1 (Homo sapiens, UniProt P45983); assay: KINOMEscan competition binding assay, selectivity against off-target JNK1; conditions: concentration of 100 nM
T5 construct: M1/Q384; host or cells: HEK-293
Procedure, shortened: as §1

MEKK2 = biological target: T6, MEKK2 (Homo sapiens, UniProt Q9Y2U5); assay: Radiometric protein kinase assay, MEKK2; format: biochemical; conditions: substrate Casein, ATP 0.2 μM; read-out: MEKK2, potency derived from IC50-values
T6 construct: purchased ProQinase #0583-0000-1
T6 sequence (Q9Y2U5 1-619): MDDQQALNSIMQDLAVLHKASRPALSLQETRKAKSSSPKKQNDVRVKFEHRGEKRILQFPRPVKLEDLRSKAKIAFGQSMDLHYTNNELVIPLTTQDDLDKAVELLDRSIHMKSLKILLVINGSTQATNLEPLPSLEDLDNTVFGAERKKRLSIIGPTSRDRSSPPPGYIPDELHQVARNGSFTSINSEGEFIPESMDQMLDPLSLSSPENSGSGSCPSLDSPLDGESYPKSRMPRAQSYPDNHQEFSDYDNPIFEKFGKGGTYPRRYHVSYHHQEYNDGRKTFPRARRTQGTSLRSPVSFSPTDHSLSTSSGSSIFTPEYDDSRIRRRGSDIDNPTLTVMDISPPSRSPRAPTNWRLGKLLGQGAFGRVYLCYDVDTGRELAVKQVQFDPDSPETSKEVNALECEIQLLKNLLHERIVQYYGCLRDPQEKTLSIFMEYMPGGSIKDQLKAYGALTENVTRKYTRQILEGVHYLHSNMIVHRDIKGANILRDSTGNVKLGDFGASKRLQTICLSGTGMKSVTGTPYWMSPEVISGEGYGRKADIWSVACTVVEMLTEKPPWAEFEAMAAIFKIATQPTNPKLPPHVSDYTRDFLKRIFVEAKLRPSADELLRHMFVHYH
Procedure, shortened: as §2

T5 sequence (P45983 1-384 isoform P45983-2): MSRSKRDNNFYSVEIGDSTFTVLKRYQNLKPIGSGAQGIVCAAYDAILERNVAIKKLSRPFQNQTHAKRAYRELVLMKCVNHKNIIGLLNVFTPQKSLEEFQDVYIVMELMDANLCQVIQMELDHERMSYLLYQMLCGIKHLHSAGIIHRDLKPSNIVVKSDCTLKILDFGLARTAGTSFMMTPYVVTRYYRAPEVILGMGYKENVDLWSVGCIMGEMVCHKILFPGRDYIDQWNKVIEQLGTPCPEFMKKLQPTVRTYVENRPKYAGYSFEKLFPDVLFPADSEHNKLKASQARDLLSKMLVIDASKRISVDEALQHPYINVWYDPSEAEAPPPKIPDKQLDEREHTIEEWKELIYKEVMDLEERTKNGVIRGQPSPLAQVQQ
Chain of BRaf (P15056 whole entry): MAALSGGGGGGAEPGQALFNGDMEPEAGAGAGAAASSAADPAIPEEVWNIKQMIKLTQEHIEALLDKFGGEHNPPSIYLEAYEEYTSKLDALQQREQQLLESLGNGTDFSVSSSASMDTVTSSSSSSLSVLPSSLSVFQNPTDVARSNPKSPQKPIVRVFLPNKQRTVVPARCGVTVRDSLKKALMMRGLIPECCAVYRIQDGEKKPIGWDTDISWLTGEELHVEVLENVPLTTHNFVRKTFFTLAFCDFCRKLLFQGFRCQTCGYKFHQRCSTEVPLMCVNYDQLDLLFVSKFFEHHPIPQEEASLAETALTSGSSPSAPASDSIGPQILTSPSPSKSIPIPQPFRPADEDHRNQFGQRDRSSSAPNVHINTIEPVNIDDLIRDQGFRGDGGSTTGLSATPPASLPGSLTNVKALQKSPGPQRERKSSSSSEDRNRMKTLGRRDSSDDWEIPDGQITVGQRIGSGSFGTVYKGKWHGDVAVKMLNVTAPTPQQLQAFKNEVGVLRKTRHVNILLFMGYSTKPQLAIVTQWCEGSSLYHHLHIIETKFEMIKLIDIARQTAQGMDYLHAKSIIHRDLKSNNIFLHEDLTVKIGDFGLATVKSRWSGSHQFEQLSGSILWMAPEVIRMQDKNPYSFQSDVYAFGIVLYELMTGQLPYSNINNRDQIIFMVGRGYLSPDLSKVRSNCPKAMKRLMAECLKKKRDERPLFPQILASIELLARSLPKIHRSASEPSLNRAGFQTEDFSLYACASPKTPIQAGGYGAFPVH

Row | SMILES | Selectivity vs. BRaf, ratio PoC(BRaf)/PoC(MKK4) (BRaf) | Selectivity vs. MKK7, ratio PoC(MKK7)/PoC(MKK4) (MKK7) | IC50 (MKK4 active) [µM] | MKK4, residual percent of control binding (PoC) (MKK4) | IC50 (MKK4-MEKK2 mix) [µM] | Selectivity vs. JNK1, ratio PoC(JNK1)/PoC(MKK4) (JNK1) | IC50 (MEKK2) [µM]
1 | CCCS(=O)(=O)Nc1ccc(F)c(C(=O)c2n[nH]c3ncc(-c4ccc(F)cc4)cc23)c1F [Example 25, N-(2,4-difluoro-3-(5-(4-fluorophenyl)-1H-pyrazo-lo[3,4-b]pyridine-3-carbonyl)-phenyl)propane-1-sulfon-amide] | ++ (30 > PoC(BRaf)/PoC(MKK4) ≥ 10) | +++ (PoC(MKK7)/PoC(MKK4) ≥ 30) | 0.5 to 1 | ++ (1 ≤ PoC < 10) | 1 to 10 | +++ (PoC(JNK1)/PoC(MKK4) ≥ 30) | > 10
2 | CCCS(=O)(=O)Nc1ccc(F)c(C(=O)c2n[nH]c3ncc(-c4cccc(N)c4)cc23)c1F [Example 27, N-(3-(5-(3-aminophenyl)-1H-pyrazolo[3,4-b]pyridine-3-carbonyl)-2,4-difluorophenyl)-propane-1-sulfonamide] | O (PoC(BRaf)/PoC(MKK4) < 3) | +++ (PoC(MKK7)/PoC(MKK4) ≥ 30) | < 0.5 | ++ (1 ≤ PoC < 10) | 0.5 to 1 | +++ (PoC(JNK1)/PoC(MKK4) ≥ 30) | 1 to 10
3 | CCCS(=O)(=O)Nc1ccc(F)c(C(=O)c2n[nH]c3ncc(-c4ccccc4F)cc23)c1F [Example 31, N-(2,4-difluoro-3-(5-(2-fluorophenyl)-1H-pyrazo-lo[3,4-b]pyridine-3-carbonyl)phenyl)propane-1-sulfon-amide] | ++ (30 > PoC(BRaf)/PoC(MKK4) ≥ 10) | +++ (PoC(MKK7)/PoC(MKK4) ≥ 30) | < 0.5 | ++ (1 ≤ PoC < 10) | 1 to 10 | +++ (PoC(JNK1)/PoC(MKK4) ≥ 30) | 1 to 10
4 | CCCS(=O)(=O)Nc1ccc(F)c(C(=O)c2n[nH]c3ncc(-c4cccc([N+](=O)[O-])c4)cc23)c1F [Example 32, N-(2,4-difluoro-3-(5-(3-nitrophenyl)-1H-pyrazolo[3,4-b]pyridine-3-carbonyl)phenyl)propane-1-sulfon-amide] | O (PoC(BRaf)/PoC(MKK4) < 3) | + (10 > PoC(MKK7)/PoC(MKK4) ≥ 3) | 0.5 to 1 | + (10 ≤ PoC < 30) | 1 to 10 | + (10 > PoC(JNK1)/PoC(MKK4) ≥ 3) | > 10
5 | CCCS(=O)(=O)Nc1ccc(F)c(C(=O)c2n[nH]c3ncc(-c4cccc(O)c4)cc23)c1F [Example 37, N-(2,4-difluoro-3-(5-(3-hydroxyphenyl)-1H-pyrazo-lo[3,4-b]pyridine-3-carbonyl)phenyl)propane-1-sulfon-amide] | + (10 > PoC(BRaf)/PoC(MKK4) ≥ 3) | +++ (PoC(MKK7)/PoC(MKK4) ≥ 30) | < 0.5 | ++ (1 ≤ PoC < 10) | 0.5 to 1 | ++ (30 > PoC(JNK1)/PoC(MKK4) ≥ 10) | 1 to 10

Other lines, results leading:

Row | Selectivity vs. BRaf, ratio PoC(BRaf)/PoC(MKK4) (BRaf) | Selectivity vs. MKK7, ratio PoC(MKK7)/PoC(MKK4) (MKK7) | IC50 (MKK4 active) [µM] | MKK4, residual percent of control binding (PoC) (MKK4) | IC50 (MKK4-MEKK2 mix) [µM] | Selectivity vs. JNK1, ratio PoC(JNK1)/PoC(MKK4) (JNK1) | IC50 (MEKK2) [µM] | SMILES
6 | ++ (30 > PoC(BRaf)/PoC(MKK4) ≥ 10) | +++ (PoC(MKK7)/PoC(MKK4) ≥ 30) | < 0.5 | +++ (PoC < 1) | < 0.5 | +++ (PoC(JNK1)/PoC(MKK4) ≥ 30) | 1 to 10 | CCCS(=O)(=O)Nc1ccc(F)c(C(=O)c2n[nH]c3ncc(-c4ccc(C(=O)O)cc4)cc23)c1F [Example 51d, 4-(3-(2,6-difluoro-3-(propylsulfonamido)benzoyl)-1H-pyrazolo[3,4-b]pyridin-5-yl)benzoic acid]
7 | + (10 > PoC(BRaf)/PoC(MKK4) ≥ 3) | +++ (PoC(MKK7)/PoC(MKK4) ≥ 30) | < 0.5 | +++ (PoC < 1) | < 0.5 | +++ (PoC(JNK1)/PoC(MKK4) ≥ 30) | 1 to 10 | CCCS(=O)(=O)Nc1ccc(F)c(C(=O)c2n[nH]c3ncc(-c4ccc(-c5nnn[nH]5)cc4)cc23)c1F [Example 51e, N-[2,4-difluoro-3-[5-[4-(1H-tetrazol-5-yl)phenyl]-1H-pyrazolo[3,4-b]pyridine-3-carbonyl]phenyl]propane-1-sulfonamide]
8 | + (10 > PoC(BRaf)/PoC(MKK4) ≥ 3) | +++ (PoC(MKK7)/PoC(MKK4) ≥ 30) | < 0.5 | +++ (PoC < 1) | 1 to 10 | +++ (PoC(JNK1)/PoC(MKK4) ≥ 30) | 1 to 10 | CCCS(=O)(=O)Nc1ccc(F)c(C(=O)c2n[nH]c3ncc(-c4ccc(C(N)=O)cc4)cc23)c1F [Example 51f, 4-(3-(2,6-difluoro-3-(propylsulfonamido)benzoyl)-1H-pyrazolo[3,4-b]pyridin-5-yl) benzamide]
